Results published in patent US11667649B2, “Heteroaromatic macrocyclic ether chemotherapeutic agents” (Nuvalent, Inc., priority 2020, dated 2023).

Tested on: TPM3-NTRK1-wt IC50 / primary target (e.g. CD74-ROS1-wt) IC50, Ba/F3 cells
Test: Cell assay TRKA selectivity (TRKA potency divided by primary target potency)
Format: cell-based
Conditions: for TPM3-NTRK1-wt/CD74-ROS1-G2032R: TRKA selectivity ratio: TPM3-NTRK1-wt IC50 / CD74-ROS1-G2032R IC50, Ba/F3 cells; for TPM3-NTRK1-wt/CD74-ROS1-wt: TRKA selectivity ratio: TPM3-NTRK1-wt IC50 / CD74-ROS1-wt IC50, Ba/F3 cells; for TPM3-NTRK1-wt/EML4-ALK-L1196M-G1202R: TRKA selectivity ratio: TPM3-NTRK1-wt IC50 / EML4-ALK-L1196M-G1202R IC50, Ba/F3 cells; for TPM3-NTRK1-wt/EML4-ALK-wt: TRKA selectivity ratio: TPM3-NTRK1-wt IC50 / EML4-ALK-wt IC50, Ba/F3 cells
Description: Genes encoding CD74-ROS1 wild-type (wt), CD74-ROS1 G2032R, CD74-ROS1 S1986F, CD74-ROS1 L2026M, CD74-ROS1 D2033N, EML4-ALK wt (variant 1), EML4-ALK G1202R (variant 1), EML4-ALK L1196M/G1202R (variant 1), EML4-ALK G1202R/G1269A (variant 1), EML4-ALK G1202R/L1198F (variant 1), and TPM3-TRKA were synthesized at GeneRay, cloned into the retroviral construct pMSCV-puro (Biovector), and packaged into retroviral particles. The virus was used to infect Ba/F3 cells (RIKEN) at multiplicity of infection=1 for 1 day. Infected cells were rescued in media (RPMI-1640 with 10% fetal bovine serum and 1% streptomycin and penicillin) supplemented with mouse IL-3 (10 ng/mL) for 2 days, and stable cell lines were selected by IL-3 withdrawal and puromycin (0.8 μg/mL) for 7 days. Monoclones were selected by single-cell dilution in IL-3-free medium containing puromycin (0.8 μg/mL). Transformation of desired genes was confirmed by Sanger sequencing and western blot using the following antibodies: ROS1 (CST #3287), ALK (CST #3633), and pan-TRK (Abcam #76291).
Stable cells were plated at 1,000 cells/well (40 μL) in a 384-well plate for 1 day. Test compounds (40 nL) were then added in a 3-fold dilution series using the TECAN EVO200 liquid handler and incubated for 72 hours. Plates were equilibrated at room temperature for 15 minutes followed by addition of 40 μL CellTiter-Glo reagent (Promega). Luminescence was measured on a plate reader. Half-maximal inhibitory concentration (IC50) was calculated from percent inhibition and inhibitor concentration using four-parameter logistic regression. […] Exemplary data is given in Table 4 (nd is not determined).
TRKA selectivity was calculated by dividing a compound's TRKA potency by its primary target potency (e.g. TPM3-NTRK1-wt IC50/CD74-ROS1-wt IC50). Compound selectivity can be interpreted by binning ratio values: bin A for very high selectivity, ratio>30-fold; bin B for high selectivity, ratio>10-fold; bin C for moderate selectivity, ratio≥1; and bin D for low selectivity, ratio<1. […] (nd=not determined).

Compound	TPM3-NTRK1-wt/CD74-ROS1-G2032R	TPM3-NTRK1-wt/CD74-ROS1-wt	TPM3-NTRK1-wt/EML4-ALK-L1196M-G1202R	TPM3-NTRK1-wt/EML4-ALK-wt
CC1Oc2cc(cnc2N)-c2c(n[nH]c2C#N)Cc2cnn(C)c2-c2ccc(F)cc21 (stereo not drawn) [Example 168, 22-amino-16-fluoro-11,19-dimethyl-20-oxa-4,5,10,11,23-pentaazapentacyclo[19.3.1.0^2,^6.0^8,^12.0^13,^18]pentacosa-1(24),2,5,8(12),9,13,15,17,21(25),22-decaene-3-carbonitrile]	A (bin A for very high selectivity, ratio>30-fold)	A (bin A for very high selectivity, ratio>30-fold)	B (bin B for high selectivity, ratio>10-fold)	A (bin A for very high selectivity, ratio>30-fold)
CCn1ncc2c1-c1cnc(N)c(c1)O[C@H](C)c1cc(F)ccc1-c1nc(C)cn1C2 [Example 45, (19R)-3-ethyl-16-fluoro-10,19-dimethyl-20-oxa-3,4,8,11,23-pentaazapentacyclo[19.3.1.0^2,^6.0^8,^12.0^13,^18]pentacosa-1(24),2(6),4,9,11,13,15,17,21(25),22-decaen-22-amine]	A (bin A for very high selectivity, ratio>30-fold)	A (bin A for very high selectivity, ratio>30-fold)	B (bin B for high selectivity, ratio>10-fold)	A (bin A for very high selectivity, ratio>30-fold)
CCn1ncc2c1-c1cnc(N)c(c1)O[C@H](C)c1cc(F)ccc1-c1nn(C)c(OC)c1C2 [Example 157, (19R)-3-ethyl-16-fluoro-9-methoxy-10,19-dimethyl-20-oxa-3,4,10,11,23-pentaazapentacyclo[19.3.1.0^2,^6.0^8,^12.0^13,^18]pentacosa-1(24),2(6),4,8,11,13,15,17,21(25),22-decaen-22-amine]	A (bin A for very high selectivity, ratio>30-fold)	A (bin A for very high selectivity, ratio>30-fold)	C (bin C for moderate selectivity, ratio≥1)	A (bin A for very high selectivity, ratio>30-fold)
Cc1nc2c(s1)Cn1ncc(C(F)F)c1-c1cnc(N)c(c1)O[C@H](C)c1cc(F)ccc1-2 [Example 68, (19R)-3-(difluoromethyl)-16-fluoro-10,19-dimethyl-20-oxa-9-thia-5,6,11,23-tetraazapentacyclo[19.3.1.0^2,^6.0^8,^12.0^13,^18]pentacosa-1(24),2,4,8(12),10,13,15,17,21(25),22-decaen-22-amine]	B (bin B for high selectivity, ratio>10-fold)	A (bin A for very high selectivity, ratio>30-fold)	C (bin C for moderate selectivity, ratio≥1)	B (bin B for high selectivity, ratio>10-fold)
CCn1ncc2c1-c1cnc(N)c(c1)O[C@H](C)c1cc(F)ccc1-c1nc(C)oc1C2 [Example 131, (19R)-3-ethyl-16-fluoro-10,19-dimethyl-9,20-dioxa-3,4,11,23-tetraazapentacyclo[19.3.1.0^2,^6.0^8,^12.0^13,^18]pentacosa-1(24),2(6),4,8(12),10,13,15,17,21(25),22-decaen-22-amine]	B (bin B for high selectivity, ratio>10-fold)	A (bin A for very high selectivity, ratio>30-fold)	C (bin C for moderate selectivity, ratio≥1)	B (bin B for high selectivity, ratio>10-fold)
C[C@H]1Oc2cc(cnc2N)-c2c(nnn2CC2CC2)Cc2cc(C(F)F)nn2-c2ccc(F)cc21 [Example 122, (19R)-3-(cyclopropylmethyl)-10-(difluoromethyl)-16-fluoro-19-methyl-20-oxa-3,4,5,11,12,23-hexaazapentacyclo[19.3.1.0^2,^6.0^8,^12.0^13,^18]pentacosa-1(24),2(6),4,8,10,13,15,17,21(25),22-decaen-22-amine]	A (bin A for very high selectivity, ratio>30-fold)	A (bin A for very high selectivity, ratio>30-fold)	C (bin C for moderate selectivity, ratio≥1)	B (bin B for high selectivity, ratio>10-fold)
